Read-outs that look alike come from different tables or passages of the source.
Columns and labels:
codling moth neonates [1] = experiment: Feeding stimulation by L-aspartate on treated apple leaf sections; format: in vivo, Cydia pomonella
Experimental: (§1) Codling moth adults (C. pomonella) were obtained from the U.S. Department of Agriculture Research Service (USDAD ARS) at Yakima, Wash. The moths were kept at 25° C., 70-80% relative humidity, and a photoperiod of 16:8 (L:D) h. Polyethylene foil was provided as an oviposition surface. […] In all experiments, 0.5-1 hour posthatch neonates were used.
Feeding Stimulation by L-Aspartate. The feeding behavior of test larvae was assessed on apple leaf sections treated with L-aspartate solutions, and by a quantitative analysis of the amounts of leaf tissue ingested. Briefly, L-aspartate was dissolved in 0.02% Triton X-100 in distilled water, and the following concentrations were used for treatment of experimental sections: 0.01, 0.1, and 1 mg/ml. Control leaves were treated with the 0.02% aqueous Triton X-100 only. Circular sections of uniform size (12 mm in diameter) were removed from Honeycrisp (U.S. Pat. No. 7,197) foliage, avoiding the leaf rib area. Test solutions (10 μl) were distributed over the upper surface of the excised sections that subsequently were allowed to air-dry. […] Treated sections were placed in bioassay stations and each section was infested with one neonate larva. The surface area of each leaf disc that was consumed was determined using a stereomicroscope equipped with an ocular square mesh reference scale (No. 12-561-RG2; Fisher, Pittsburgh, Pa.). Thirty-three fragments of leaves, chosen randomly from […] of the leaves, were also measured visually and then dried and weighed to establish a relationship between optical measurement and weight of foliage consumed. Based on this determination, consumed areas of the leaf were converted to an estimated dry weight of leaf tissue.
Thirty to forty neonate larvae were tested individually to each concentration of L-aspartate. The amount of leaf tissue consumed by neonates was estimated 3 and 24 hours after infestation of each bioassay station, and was expressed as average (mean±SEM) leaf consumption.

codling moth neonates [2] = format: in vivo; conditions: addition of 1 mg/ml L-aspartate; LC50 alone divided by LC50 with L-aspartate
Experimental: as §1

codling moth neonates [3] = experiment: Foliage consumption on foliage treated with LC30 of insecticide alone or with L-aspartate; format: in vivo, Cydia pomonella; conditions: LC30 of insecticide alone or with 1 mg/ml L-aspartate, 24 hours
codling moth larvae = experiment: Insecticide enhancement with L-aspartate: field trials, fruit damage; format: in vivo, Cydia pomonella; conditions: for fruit damage reduced by: L-aspartate added to insecticides
Experimental: Field trials were performed in 2010, 2011, and 2012 in a research orchard at the Missouri State Fruit Experiment Station in Mountain Grove, Mo. […] A 1-hectare apple research block was set up for the research. […] To combat these pests and diseases, the block was treated with a standard program of fungicides and insecticides alone or with addition of L-aspartate. An untreated 0.5-hectare refuge for the lepidopteran pests consisting of apple trees that were not treated with fungicides or insecticides was set up on the periphery of the block to provide moderate pressure from the pests, including codling moth.
The same experimental routine was followed each year. Apple trees of Stark Gala variety on M7A rootstock were used in fully randomized design for eight replicates and three treatments (a given insecticide alone, L-aspartate in combination with a given insecticide, and untreated control). Codling moth populations in experimental plots were monitored using delta traps baited with 0.16% codlemone (8E,10E-dodecadien-1-ol). Whenever a weekly count of codling moth males in the traps reached or exceeded five males per trap, an insecticide was applied within the next 1-2 days.
For each replicate, one tree received a spray with an insecticide tank-mixed with L-aspartate. Concentration of L-aspartate was 211 g/100 liters, which corresponded to 395 g/ha. Next, one tree in each replicate was sprayed with the respective insecticide only. Surf-Ac 820 (2.1 kg/ha, 50 g/100 liters) was used as a surfactant in either spray with L-aspartate-insecticide combination or with the respective insecticide only. In addition, one tree in each replicate was left untreated.
Sprays (at delivery rate=4673 liters/ha) were performed using a custom-made motorized handgun sprayer with nine separate tanks (Friend Manufacturing Corporation, Gasport, N.Y.) capable of sending the spray precisely into canopy of height up to 4 meters. To minimize spray drift, a tarpaulin screen was used.
Each year, 200 apples were sampled from each experimental trees treated with insecticide-L-asparate combination, each control tree (treated with insecticides only), and from each untreated tree. One hundred apples per tree were collected 2 weeks after the first flight of codling moth (May 2010, early June in 2011, and May 2012). Remaining apples (100 per tree) were collected at harvest (August in 2010 and 2011 and July in 2012). […] Briefly, 33-34 apples were collected from each of three zones within the canopy (close to the trunk, from the middle of the distance in between the trunk and the tips of the branches, and from the outside portion of the canopy to within 10-15 cm inside). Each time a vertical area from the bottom to the top of the canopy was randomly sampled in a circuitous design around the tree. The apples were immediately weighed and inspected for damage in the laboratory. Once damage was found, the fruit was carefully fragmented with a paring knife, and internal fruit feeders (in some fruits larvae of oriental fruit moth were found) were collected and examined under a stereomicroscope. Codling moth larvae were discriminated from oriental fruit moth larvae by absence of anal comb (Il'ichev et al. 2006). […] Apple weight was expressed as average±SEM weight. Damage was expressed as average±SEM percentage of sampled fruit that was infected by codling moth larvae.

[4] = system: Drosophila N-methyl-D-aspartate (NMDA) receptors; conditions: excitation of receptors; cited from earlier work
codling moth neonates [5] = conditions: residues on artificial diet surface; cited from earlier work
[6] = addition of 0.1% Coax; cited from earlier work
Spodoptera frugiperda = conditions: Nu-Lure, Coax or Konsume, concentrations as high as 10%; cited from earlier work
codling moth neonates [7] = conditions: earlier studies, cited from earlier work
codling moth neonates [8] = conditions: cited from earlier work
[9] = system: fourth-instar larvae of Heliothis virescens; conditions: fed artificial diet; cited from earlier work
[10] = system: fourth-instar larvae of Spodoptera littoralis; conditions: fed artificial diet; cited from earlier work
[11] = system: neonates of Choristoneura rosaceana; conditions: 24 hours, concentrations as low as 0.6 ppm (AI); cited from earlier work

N[C@@H](CC(=O)O)C(=O)O [L-aspartate, L-Aspartic acid]
concentration at which food consumption increased (codling moth neonates [1]; 3-hour assays): 1 mg/mL
lowest effective concentration increasing food consumption (codling moth neonates [1]; 24-hour assays): 0.1 mg/mL
increased foliage consumption in comparison with control (codling moth neonates [1]; 3 hours, 1 mg/ml L-aspartate): approximately 60%
increased foliage consumption in comparison with control (codling moth neonates [1]; 24 hours, 0.1 mg/ml L-aspartate): approximately 30%
increased foliage consumption in comparison with control (codling moth neonates [1]; 24 hours, 1 mg/ml L-aspartate): approximately 40%
efficacy increased by a factor (enhancement ratio) (codling moth neonates [2]): approximately 10
foliage consumption (codling moth neonates [3]): maintained its feeding stimulatory properties even in the presence of each insecticide
fruit damage by first-generation neonates after addition of L-aspartate to insecticide sprays (codling moth larvae; 2010): < 1%
fruit damage by first-generation neonates after addition of L-aspartate to insecticide sprays (codling moth larvae; 2011): 1.2%
fruit damage by first-generation neonates after addition of L-aspartate to insecticide sprays (codling moth larvae; 2012): 1%
fruit damage reduced by (codling moth larvae; first generation): 5%
fruit damage reduced by (codling moth larvae; second generation): 15%
potency relative to glutamate [4]: about five times less potent than glutamate

C/C(=N\C#N)N(C)Cc1ccc(Cl)nc1 [acetamiprid]
LC50 with 95% confidence (codling moth neonates [5]): 1.35 to 2.06 mg (AI)/liter

CC1(C)C(C=C(Cl)Cl)C1C(=O)OC(C#N)c1cccc(Oc2ccccc2)c1 (stereo not shown) [cypermethrin]
toxicity increased (times) [6]: 2.4 times

CC1(C)[C@H](C(=O)O[C@H](C#N)c2cccc(Oc3ccccc3)c2)[C@@H]1C=C(Br)Br [delthamethrin]
toxicity increased (times) [6]: 11.3 times

O=C(NC(=O)c1c(F)cccc1F)Nc1ccc(Cl)cc1 [diβubenzuron]
mortality on adding phagostimulants (Spodoptera frugiperda): unable to significantly increase mortality

N[C@@H](CCC(=O)O)C(=O)[O-].[Na+] [monosodium glutamate]
concentration at which food consumption increased (codling moth neonates [7]; 3-hour assays): 0.03 mg/mL
effective concentration increasing food consumption (codling moth neonates [7]; 24-hour assays): 0.05 mg/mL

CCc1ccc(C(=O)NN(C(=O)c2cc(C)cc(C)c2)C(C)(C)C)cc1 [tebufenoside]
mortality on adding phagostimulants (Spodoptera frugiperda): unable to significantly increase mortality

NC1(C(=O)O)CC(C(=O)O)C1 (stereo not drawn) [trans-ACBD]
reduction of insecticide active ingredient without sacrificing efficacy (codling moth neonates [8]; in vivo): > 50%

CC1(C)C(C=C(Cl)Cl)C1C(=O)OC(C#N)c1ccc(F)c(Oc2ccccc2)c1 (stereo not drawn) [β-cyfluthrin]
LC50 [9]: 3.1 μg/g of diet
LC50 [10]: 0.1 μg/g of diet

spinetoram
mortality [11]: 100%

spinosad
efficacy enhancement (codling moth neonates [8]; addition of trans-ACBD): enhanced almost two times

— patent US20160100572A1, “Enhancement Of Insecticides Against Codling Moth (Lepidoptera: Tortricidae) With L-Aspartate” (priority 2014, published 2016)
